From patent US9149038B2, “4-amino-6-(heterocyclic)picolinates and 6-amino-2-(heterocyclic)pyrimidine-4-carboxylates and their use as herbicides” (Dow AgroSciences LLC, priority 2013, dated 2015)
Read-outs that look alike come from different tables or passages of the source.

Tests used:
[1] = system: Key Broadleaf Weed and Crop Species; assay: Post-Emergent Test II: postemergent herbicidal activity, visual rating after 14 d (Table 7); type: in vivo; details: post-emergence, 336 h; for pest or weed control at 35 g/ha: 35 g ai/ha; for pest or weed control at 70 g/ha: 70 g ai/ha; for pest or weed control at 140 g/ha: 140 g ai/ha
Procedure, shortened: (§1)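 Post-emergence foliar spray, 187 L/ha, first/second true leaf stage plants in potting mix (pH 6.0-6.8). Rates: top rate and 2-fold serial dilutions to 1/16×. Solvent-blank controls. Readout: visual % kill at 14 d.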

[2] = system: Key Grass and Sedge Weeds as well as Grass Crops; assay: Post-Emergent Test II: postemergent herbicidal activity, visual rating after 14 d (Table 8); type: in vivo; details: post-emergence, 336 h; for pest or weed control at 35 g/ha: 35 g ai/ha; for pest or weed control at 70 g/ha: 70 g ai/ha; for pest or weed control at 140 g/ha: 140 g ai/ha
Procedure, shortened: as §1

[3] = lambsquarters (Chenopodium album), read-out: Visual Growth Reduction (%) 14 Days After Application CHEAL
[4] = oilseed rape, canola (Brassica napus), read-out: Visual Growth Reduction (%) 14 Days After Application BRSNN
[5] = redroot pigweed (Amaranthus retroflexus), read-out: Visual Growth Reduction (%) 14 Days After Application AMARE
[6] = sunflower (Helianthus annuus), read-out: Visual Growth Reduction (%) 14 Days After Application HELAN
[7] = velvetleaf (Abutilon theophrasti), read-out: Visual Growth Reduction (%) 14 Days After Application ABUTH
[8] = wild poinsettia (Euphorbia heterophylla), read-out: Visual Growth Reduction (%) 14 Days After Application EPHHL
[9] = barnyardgrass (Echinochloa crus-galli), read-out: Visual Growth Reduction (%) 14 Days After Application ECHCG
[10] = giant foxtail (Setaria faberi), read-out: Visual Growth Reduction (%) 14 Days After Application SETFA
[11] = maize, corn (Zea mays), read-out: Visual Growth Reduction (%) 14 Days After Application ZEAMX
[12] = rice (Oryza sativa), read-out: Visual Growth Reduction (%) 14 Days After Application ORYSA
[13] = wheat, spring (Triticum aestivum), read-out: Visual Growth Reduction (%) 14 Days After Application TRZAS
[14] = yellow nutsedge (Cyperus esculentus), read-out: Visual Growth Reduction (%) 14 Days After Application CYPES

Work on `C=Cc1c(C(=O)O)nc(-c2cc3c(cc2F)OC(F)(F)O3)c(F)c1N` [Compound 28] yielded a pest or weed control at 35 g/ha [1, 3] of 0 to 29%, a pest or weed control at 70 g/ha [1, 3] of 0 to 29% and a pest or weed control at 140 g/ha [1, 3] of 0 to 29%. It also gave a pest or weed control at 35 g/ha [1, 4] of 0 to 29%, a pest or weed control at 70 g/ha [1, 4] of 0 to 29% and a pest or weed control at 140 g/ha [1, 4] of 60 to 74%. The pest or weed control at 35 g/ha [1, 5] was 0 to 29%, the pest or weed control at 70 g/ha [1, 5] was 0 to 29% and the pest or weed control at 140 g/ha [1, 5] was 0 to 29%. It also gave a pest or weed control at 35 g/ha [1, 6] of 85 to 94%, a pest or weed control at 70 g/ha [1, 6] of 85 to 94% and a pest or weed control at 140 g/ha [1, 6] of 95 to 100%. For the same compound, the pest or weed control at 35 g/ha [1, 7] was 0 to 29%, the pest or weed control at 70 g/ha [1, 7] was 0 to 29% and the pest or weed control at 140 g/ha [1, 7] was 60 to 74%. The pest or weed control at 35 g/ha [1, 8] was 95 to 100%, the pest or weed control at 70 g/ha [1, 8] was 95 to 100% and the pest or weed control at 140 g/ha [1, 8] was 95 to 100%. The pest or weed control at 35 g/ha [2, 9] was 60 to 74%, the pest or weed control at 70 g/ha [2, 9] was 75 to 84% and the pest or weed control at 140 g/ha [2, 9] was 75 to 84%. The pest or weed control at 35 g/ha [2, 10] was 0 to 29%, the pest or weed control at 70 g/ha [2, 10] was 45 to 59% and the pest or weed control at 140 g/ha [2, 10] was 60 to 74%. The pest or weed control at 35 g/ha [2, 11] was 60 to 74%, the pest or weed control at 70 g/ha [2, 11] was 60 to 74% and the pest or weed control at 140 g/ha [2, 11] was 75 to 84%. It also gave a pest or weed control at 35 g/ha [2, 12] of 0 to 29%, a pest or weed control at 70 g/ha [2, 12] of 0 to 29% and a pest or weed control at 140 g/ha [2, 12] of 0 to 29%. It also gave a pest or weed control at 35 g/ha [2, 13] of 0 to 29%, a pest or weed control at 70 g/ha [2, 13] of 0 to 29% and a pest or weed control at 140 g/ha [2, 13] of 30 to 44%. For the same compound, the pest or weed control at 35 g/ha [2, 14] was 95 to 100%, the pest or weed control at 70 g/ha [2, 14] was 95 to 100% and the pest or weed control at 140 g/ha [2, 14] was 95 to 100%.
